According to US10253002B2, “Compounds and methods of treating infections” (Neoculi Pty Ltd., priority 2013, dated 2019):
Values after ≈ are worked out from the molar mass of the structure shown. Values joined by “and” are separate entries in the source; they are usually repeats but may differ in a detail not shown here. Identical values can stand only once. Like-named read-outs stand apart in the source and are kept apart here.

Tests used:
Format in all cases: cell-based
[1] = system: vancomycin-resistant Enterococcus spp. (VRE); test: Broth microdilution MIC (CLSI), Example 1; conditions: for MIC90: Enterococcus isolates of Table 4; for MIC: Enterococcus, VRE, read-out: MIC
Experimental: (§1) Cation adjusted Mueller Hinton Broth (CAMHB) was prepared using 100 mL sterile Mueller Hinton broth (pH adjusted). To each 100 mL volume, 125 μL of calcium stock solution (10 mg Ca^2+ per ml) and 43 μL magnesium stock solution (10 mg Mg^2+ per mL) was aseptically added. Sufficient broth is made up for daily use, with unused portions being stored at 4° C. overnight.
(§2) Potency was described as 1000 mg/g or 100%. The powder was dissolved in 10 mL DMSO and 1 mL volumes were aliquoted into eppendorf tubes and stored at −80° C.
(§3) Serial dilutions were prepared in 96 well plates were set up in a safety cabinet according to methods standard in the art. Briefly: 90 μL of the working antibiotic solution was added to each well in Column 12 of the plate, and mixed well, before 90 μL was transferred to column 11. The solutions were mixed again, and then transferred to the next column as before, continuing the dilutions through to column 3. Mixing the well requires the pick up and expulsion of 90 μL in each well 3-4 times before picking up and transferring the 90 μL to the next well. […] The trays were set up as follows: 2 strains were tested in duplicate in one tray, such that strain 1 was located in rows A to D, strain 2 was located in rows E to H, etc.
(§4) Fresh cultures of bacteria were prepared for testing on sheep blood agar (SBA), and overnight incubation at 37° C. as follows; 2-3 colonies of each strain in 7 mL sterile saline, and the OD600 measured as an indication of the density (approx. […] or 0.5 McFarland Standard). The bacterial suspension was adjusted to a final absorbance of 0.08 to 0.100, using saline to achieve correct density, and as the blank. Within 15 minutes of preparation, the adjusted bacterial suspension with sterile saline 1:20 (1 mL into 19 mL sterile saline) to achieve a final bacterial concentration of 4 to 5×10^6 CFU/mL. The bacterial solution was placed into a sterile trough and 10 μL of bacterial solution added into wells 2 through to 12 on each required row (dilution of 1:10, with final concentration of bacteria in wells=5×10^5 CFU/mL). The tray was sealed and incubated at 37° C. for 18-24 h. The purity of bacterial suspension was confirmed by streaking out 50 μL of the 1:20 dilution onto a SBA plate, which was incubated for 37° C. for 18 h and examined. Viable counts were carried out to ensure that the correct concentration of bacteria and been added to the wells. The diluted bacterial solution (4 to 5×10^6 CFU/mL) was diluted 1:10 downwards by adding 100 μL to 900 μL of sterile saline in sterile tubes, and the serial dilutions continued 1:10 for 5 tubes. 100 μL (4-5 drops) of the 4th and 5th dilutions (tube 4=105 and tube 5=10^6 CFU/ml) was plated around in duplicate on pre-dried PCA agar plates and incubated at 37° C. overnight. The following day the number of colonies on the plates was counted and the average count in 100 μL obtained. The study was multiplied by 10 to obtain a viable bacterial count per mL.
(§5) Minimum inhibitory concentrations (μg/mL) were determined using the broth microdilution method recommended by the Clinical and Laboratory Standards Institute (CLSI) (Methods for Dilution Antimicrobial Susceptibility Tests for Bacteria That Grow Aerobically; Approved Standard—Seventh Edition. CLSI M7-A7, 2006; Performance Standards for Antimicrobial Disk and Dilution Susceptibility Tests for Bacteria Isolated from Animals; Approved Standard—Second Edition. CLSI M31-A2, 2002; Performance Standards for Antimicrobial Susceptibility Testing; CLSI M2-A9, 2006).
MIC breakpoints were determined by visual assessment and then confirmed using an ELISA plate reader, measuring absorbance levels at 450 nm. Bacterial growth (turbidity) in the wells with antimicrobial was compared with the amount of growth (turbidity) in the growth-control well (containing no antimicrobial).

[2] = system: methicillin-resistant Staphylococcus aureus (MRSA); test: Broth microdilution MIC (CLSI), Example 1; conditions: Staphylococcus aureus, MRSA, Test 1, read-out: MIC
Experimental: as §1, §2
For Staphylococcus aureus, a working solution of 256 μg/mL was prepared by diluting stock solutions as described above 1:100 in CAMHB (100 μL into 9.9 mL).
as §3, §4, §5
MIC breakpoints were determined by visual assessment and then confirmed using an ELISA plate reader, measuring absorbance levels at 450 nm.

[3] = system: Staphylococcus aureus T3-129 / Staphylococcus spp. MK1; test: Synergy studies, checkerboard method (FIC index)

## N=C(N/N=C/c1ccc(Cl)cc1)N/N=C/c1ccc(Cl)cc1 [NCL812, 1,3-bis[(E)-(4-chlorophenyl)methyleneamino]guanidine]
[1]; E. faecalis, 4 isolates
  MIC range: 2 to 4 µg/mL
[1]; E. faecium, 16 isolates
  MIC range: 2 to 4 µg/mL
[1]; Test 1
  MIC90: 4 µg/mL (≈ 12 µM)
[1]; Test 2
  MIC90: 4 µg/mL (≈ 12 µM)
[1]; B09/2087, Test 1
  MIC: 2 µg/mL (≈ 5.98 µM)
[1]; Enterococcus 011, Test 1
  MIC: 2 µg/mL (≈ 5.98 µM)
[1]; Enterococcus 012, Test 1
  MIC: 2 µg/mL (≈ 5.98 µM)
[1]; Enterococcus 012, Test 2
  MIC: 2 µg/mL (≈ 5.98 µM)
[1]; Enterococcus 013, Test 1
  MIC: 2 µg/mL (≈ 5.98 µM)
[1]; Enterococcus 013, Test 2
  MIC: 2 µg/mL (≈ 5.98 µM)
[1]; VRE 001, Test 1
  MIC: 2 µg/mL (≈ 5.98 µM)
[1]; VRE 001, Test 2
  MIC: 2 µg/mL (≈ 5.98 µM)
[1]; VRE 003, Test 1
  MIC: 2 µg/mL (≈ 5.98 µM)
[1]; VRE 003, Test 2
  MIC: 2 µg/mL (≈ 5.98 µM)
[1]; VRE 005, Test 1
  MIC: 2 µg/mL (≈ 5.98 µM)
[1]; VRE 005, Test 2
  MIC: 2 µg/mL (≈ 5.98 µM)
[1]; VRE 006, Test 1
  MIC: 2 µg/mL (≈ 5.98 µM)
[1]; VRE 006, Test 2
  MIC: 2 µg/mL (≈ 5.98 µM)
[2]; MRSA 616
  MIC: 8 µg/mL (≈ 23.9 µM)
[2]; MRSA 747
  MIC: 8 µg/mL (≈ 23.9 µM)
[3]; MIC of NCL812 in combination with Chloramphenicol/MIC of NCL812 alone, S. aureus strain T3-29
  FIC2: 0.25 and 0.5
[3]; MIC of NCL812 in combination with Erythromycin/MIC of NCL812 alone, S. aureus strain T3-29
  FIC2: 0.5 and 0.25
[3]; MIC of NCL812 in combination with Penicillin G/MIC of NCL812 alone, Staphylococcus spp. Strain MK1
  FIC2: 0.5
[3]; MIC of NCL812 in combination with Sulfamethoxazole/MIC of NCL812 alone, Staphylococcus spp. Strain MK1
  FIC2: 0.25 and 0.5
[3]; Staphylococcus spp. Strain MK1, NCL812 alone
  NCL812 MIC Alone: 2 µg/mL
[3]; with Erythromycin, S. aureus strain T3-29
  NCL812 MIC With Antibiotic: 2 µg/mL
[3]; with Penicillin G, Staphylococcus spp. Strain MK1
  NCL812 MIC With Antibiotic: 2 µg/mL
[3]; with Sulfamethoxazole, Staphylococcus spp. Strain MK1
  NCL812 MIC With Antibiotic: 1 µg/mL and 2 µg/mL
